Test results: patent US20240189304A1, “BET PROTEIN INHIBITORS AND USE THEREOF” (The Regents of the University of California, priority 2021, published 2024)
pIC50, pKd: −log10 of the molar value. Values joined by “and” are separate entries in the source; they are usually repeats but may differ in a detail not shown here. Equal entries are not always repeated. Blank lines part the entries; values can stand above or below the molecule they belong to.

How the values were obtained:
[1] = biological target: Brd4 ET (Homo sapiens, UniProt O60885); settings: peptide construct, read-out: binding affinity; cited from earlier work
[2] = tested on: Molm-13 cells; settings: seven days post transduction; cited from earlier work
[3] = tested on: C4-2B MDVR cells; assay: C4-2B MDVR (enzalutamide resistant) cell growth, cell number; assay type: cell-based; settings: for inhibition of cell growth (cell number): 5 μM
Protocol: (§1) Enzalutamide resistant C4-2B MDVR cells and darolutamide resistant C4-2B DaroR cells were treated with candidate compounds at 5 μM. BET (I-BET151; (R)-7-(3,5-dimethylisoxazol-4-yl)-8-methoxy-1-(1-(pyridin-2-yl)ethyl)-1,3-dihydro-2H-imidazo[4,5-c]quinolin-2-one; CAS RN 1300031-49-5) was used as the positive control at 5 μM. The cell number was determined. Only piperazine BET protein inhibitor 10 and the BET control inhibited both C4-2B MDVR and C4-2B DaroR cell growth at a concentration of 5 μM. Other compounds from the screen were not observed to effect cell growth under the test conditions.
C4-2B MDVR cells were treated with increasing doses of piperazine BET protein inhibitor 10 and compound 8 (8-(1-isopropyl-6-methyl-1H-pyrazolo[3,4-b]pyridine-5-carbonyl)-1,3-diazaspiro[4.5]decane-2,4-dione) as indicated. The cell number was determined after 3-day treatment.
(§2) C4-2B and C4-2B MDVR Cells were plated at 20,000 cells per well in 24-well plates and treated as indicated for 6 days. Total cell number was assessed by Coulter Counter. * indicates significant difference from control for each cell line, p<0.05.
C4-2B MDVR cells were plated at 20,000 cells per well in 24-well plates and treated for 5 days with the indicated compounds. The total cell number was determined and expressed as percentage of control. * indicates a significant difference from control, p<0.05.

[4] = tested on: C4-2B MDVR cells; assay: Growth inhibition in combination with enzalutamide, coefficient of drug interaction; assay type: cell-based; settings: for CDI: with enzalutamide; for CDI / CDI with Enzalutamide: C4-2B MDVR cells; for CDI with Enzalutamide: treated for 5 days; for 3 Day CDI / 5 Day CDI: with enzalutamide (MDV)
Protocol: C4-2B AbiR: abiraterone resistance; C4-2B ApaR: apalutamide resistance; C4-2B DaroR: darolutamide resistance; C4-2B MDVR: enzalutamide resistance.
Piperidine BET protein inhibitor 2 was also found to synergize with enzalutamide in inhibiting the growth of enzalutamide-resistant C4-2b MDVR cells, as shown in FIG. 6A and FIG. 6B.
Organoids generated from enzalutamide resistant LuCaP35CR PDX tumors were treated with either piperazine BET protein inhibitor 10 at concentrations as indicated (A) or in combination with enzalutamide 20 μM(C) for 7 days; representative organoids were imaged under the fluorescence microscope after stained by LIVE/DEAD Viability/Cytotoxicity Kit (Invitrogen MP03224). Organoid viability was measured using CellTiter Glo (Promega Catelog#G9681) for piperazine BET protein inhibitor 10 single treatment (B) and for combinational treatment with enzalutamide (D, E). […] Blue indicates synergy while red indicates antagonism between drugs. The coefficient of drug interaction (CDI) is calculated as follows: CDI=AB/(A×B). A is growth inhibition effect of treatment with the BET protein inhibitor. B is growth inhibition effect of enzalutamide treatment. AB is the growth inhibition effect of the combination treatment. […] The coefficient of drug interaction (CDI) of 20 μM enzalutamide with 0.5 μM BET protein inhibitor combination treatment were 0.97 and 0.91 respectively in LuCaP35CR organoids, evidencing a synergistic effect (CDI=0.4222, <1).
C4-2B MDVR […], and then total cell numbers were determined. * indicates significant difference from control and ** indicates significant difference between Enza drug treatment and the combination treatment; p<0.05.

[5] = tested on: C4-2B cells; assay: C4-2B cell growth, total cell number by Coulter Counter; assay type: cell-based; settings: 1-40 μM, 6 days
Protocol: as §2

[6] = tested on: C4-2B DaroR cells; assay: C4-2B DaroR (darolutamide resistant) cell growth, cell number; assay type: cell-based; settings: 5 μM
Protocol: as §1

[7] = biological target: T1, BRD4 (Homo sapiens, UniProt O60885); assay: Western blot of BRD4 expression in C4-2B MDVR cells; assay type: cell-based; settings: increasing doses, 2 days
T1 construct: endogenous in cells; host or cells: C4-2B MDVR
Protocol: (§3) C4-2B MDVR cells were treated with piperazine BET protein inhibitor 10 and the I-BET151 control at increasing doses for 2 days. The cell lysates were subjected to Western blot analysis for BRD4, AR-FL, and cMYC expression. As shown here, both piperazine BET protein inhibitor 10 and I-BET151 inhibited BRD4, AR-FL, and cMYC protein expression.

[8] = tested on: AR-FL; assay: Western blot of AR-FL expression in C4-2B MDVR cells; assay type: cell-based; settings: increasing doses, 2 days
Protocol: as §3

[9] = tested on: cMYC; assay: cMYC expression in C4-2B MDVR cells; assay type: cell-based; settings: increasing doses, 2 days, Western blot
Protocol: as §3

[10] = tested on: C4-2B AbiR cells; assay: Growth inhibition in combination with abiraterone, coefficient of drug interaction; assay type: cell-based; settings: with abiraterone (Abi)
[11] = tested on: C4-2B ApaR cells; assay: Growth inhibition in combination with apalutamide, coefficient of drug interaction; assay type: cell-based; settings: with apalutamide (Apa)
[12] = tested on: C4-2B DaroR cells; assay: Growth inhibition in combination with darolutamide, coefficient of drug interaction; assay type: cell-based; settings: with darolutamide (Daro)
[13] = tested on: MYC signaling pathway; assay: Analysis of total RNA isolated from treated cells; assay type: cell-based; settings: data not shown
[14] = tested on: LuCaP49 prostate cancer PDX; assay: LuCaP49 prostate cancer PDX tumor growth in mice; assay type: in vivo; settings: 60 mg/kg, i.p., daily, 5 days/week
Protocol: Mice bearing tumors from LuCaP49 prostate cancer PDX were treated with BETi-10 (60 mg/kg, i.p.) daily, 5 days/week. Tumor volume were measured and relative fold changes were calculated compared to the day 0 treatment.

Molecule: 17 amino acid region TWRVQRSQNPLKIRKTR(389′-405′) (SEQ ID NO:1) of MLV IN, minimal binding region for Brd4 ET [EBM]
pKd [1]: ~6.80 | reduction in cellular proliferation compared to vector control cells [2]: ~10 fold

Molecule: CC(C)n1nccc1NC(=O)C1CCCN(C(=O)c2ccc(Cl)c(Cl)c2)C1 (stereo not drawn) [Compound 2, 1-(3,4-dichlorobenzoyl)-N-(1-isopropyl-1H-pyrazol-5-yl)piperidine-3-carboxamide]
inhibition of cell growth (total cell number) ([3]; 1-40 μM, 6 days): inhibit the growth of C4-2B and C4-2B MDVR cells in a dose-dependent manner | CDI ([4]; 3 Day, 10 μM 2): 0.751 | CDI ([4]; 3 Day, 20 μM 2): 0.8105 | CDI ([4]; 5 Day, 10 μM 2): 0.792 | CDI ([4]; 5 Day, 20 μM 2): 0.702 | inhibition of cell growth (total cell number) [5]: inhibit the growth of C4-2B and C4-2B MDVR cells in a dose-dependent manner

Molecule: Cc1nc2c(cnn2C(C)C)cc1C(=O)C1CCC2(CC1)NC(=O)NC2=O (stereo not drawn) [Compound 8, 8-(1-isopropyl-6-methyl-1H-pyrazolo[3,4-b]pyridine-5-carbonyl)-1,3-diazaspiro[4.5]decane-2,4-dione]
growth inhibition at increasing doses ([3]; 3-day treatment): no growth inhibition was observed

BRD4 protein expression [7]: inhibited
Molecule: O=C(Nc1cccc(C(=O)N2CCN(CCOc3ccc(Cl)cc3)CC2)c1)C1CCCO1 (stereo not drawn) [Compound 10, N-(3-(4-(2-(4-chlorophenoxy)ethyl)piperazine-1-carbonyl)phenyl)tetrahydrofuran-2-carboxamide]
inhibition of cell growth (cell number) [3]: inhibited | growth inhibition at increasing doses ([3]; 3-day treatment): inhibited growth of C4-2B MDVR cells in a dose-dependent manner | pIC50 ([3]; 72 h, 3-day treatment): 5.68 to 5.77 | inhibition of cell growth (cell number) [6]: inhibited | AR-FL protein expression [8]: inhibited | cMYC protein expression [9]: inhibited | 3 Day CDI ([10]; 1 μM (10)): 1.019 | 5 Day CDI ([10]; 1 μM (10)): 1.362 | 3 Day CDI ([10]; 2.5 μM (10)): 0.914 | 5 Day CDI ([10]; 2.5 μM (10)): 0.98 and 0.9835 | 3 Day CDI ([11]; 1 μM (10)): 0.7981 | 5 Day CDI ([11]; 1 μM (10)): 0.639 | 3 Day CDI ([11]; 2.5 μM (10)): 0.7358 | 5 Day CDI ([11]; 2.5 μM (10)): 0.54 and 0.5381 | 3 Day CDI ([12]; 1 μM (10)): 0.6607 | 5 Day CDI ([12]; 1 μM (10)): 0.4574 | 3 Day CDI ([12]; 2.5 μM (10)): 0.6111 | 5 Day CDI ([12]; 2.5 μM (10)): 0.38 and 0.3762 | CDI with Enzalutamide [4]: 0.76 | 3 Day CDI ([4]; 1 μM (10)): 0.6791 | 5 Day CDI ([4]; 1 μM (10)): 0.3464 | 3 Day CDI ([4]; 2.5 μM (10)): 0.5693 | 5 Day CDI ([4]; 2.5 μM (10)): 0.26 and 0.2628 | inhibition of the MYC signaling pathway [13]: inhibit the MYC signaling pathway | tumor growth (tumor volume, relative fold change to day 0) [14]: inhibit the growth

Molecule: O=C(Nc1cccc(C(=O)N2CCN(CCOc3ccc(Cl)cc3)CC2)c1)c1ccco1 [Compound 11, N-(3-(4-(2-(4-chlorophenoxy)ethyl)piperazine-1-carbonyl)phenyl)furan-2-carboxamide]
CDI with Enzalutamide [4]: 0.90 | inhibition of the MYC signaling pathway [13]: inhibit the MYC signaling pathway

Molecule: N[C@@H](Cc1c[nH]c2ccccc12)C(=O)Nc1cccc(C(=O)N2CCN(CCOc3ccc(Cl)cc3)CC2)c1 [Compound 12, (S)-2-Amino-N-(3-(4-(2-(4-chlorophenoxy)ethyl)piperazine-1-carbonyl)phenyl)-3-(1H-indol-3-yl)propenamide]
CDI with Enzalutamide [4]: 0.90

Molecule: CC(C)(C)OC(=O)N[C@@H](Cc1c[nH]c2ccccc12)C(=O)Nc1cccc(C(=O)N2CCN(CCOc3ccc(Cl)cc3)CC2)c1 [Compound 13]
CDI with Enzalutamide [4]: 0.81

Molecule: N[C@@H](Cc1c[nH]cn1)C(=O)Nc1cccc(C(=O)N2CCN(CCOc3ccc(Cl)cc3)CC2)c1 [Compound 14, (S)-2-Amino-N-(3-(4-(2-(4-chlorophenoxy)ethyl)piperazine-1-carbonyl)phenyl)-3-(1H-imidazol-4-yl)propenamide]
CDI with Enzalutamide [4]: 0.82

BRD4 protein expression [7]: inhibited
Molecule: COc1cc2c(cc1-c1c(C)noc1C)ncc1[nH]c(=O)n([C@H](C)c3ccccn3)c12 [I-BET151, (R)-7-(3,5-dimethylisoxazol-4-yl)-8-methoxy-1-(1-(pyridin-2-yl)ethyl)-1,3-dihydro-2H-imidazo[4,5-c]quinolin-2-one, reference compound]
inhibition of cell growth (cell number) [3]: inhibited | inhibition of cell growth (cell number) [6]: inhibited | AR-FL protein expression [8]: inhibited | cMYC protein expression [9]: inhibited
